“And” between values parts separate entries of the source, which are not always exact repeats. Equal values may be shown once.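 Where inhibition never reached the appropriate level, the endpoint shown equals the highest concentration tested. Otherwise, values were interpolated linearly from a five-concentration, 48-hour dose response in 96-well plates. The concentration for 50% growth inhibition is given as GI50. TGI: concentration producing complete growth inhibition.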 Where a SMILES comes first, the peptide text is derived from it. [ ]: non-standard residue; d: D form. The star is where a group is joined. NMeV = CN[C@H](C(=O)O)C(C)C; X29 = COc1ccc(CN*)c(OC)c1; Octanoyl = CCCCCCCC(=O)*; dNMeA = CN[C@H](C)C(=O)O
How the values were obtained:
Test in all cases: inhibition of tumour cell growth, NCI panel, 48 h
A498 renal = tested on: A498 renal
ACHN renal = tested on: ACHN renal
CCRF-CEM leukemia = tested on: CCRF-CEM leukemia
EKVX NSCLC = tested on: EKVX NSCLC
HCT-15 colon = tested on: HCT-15 colon
HL-60(TB) leukemia = tested on: HL-60(TB) leukemia
HOP-92 NSCLC = tested on: HOP-92 NSCLC
HS 578T breast = tested on: HS 578T breast
HT29 colon = tested on: HT29 colon
IGROV1 ovarian = tested on: IGROV1 ovarian
K-562 leukemia = tested on: K-562 leukemia
MOLT-4 leukemia = tested on: MOLT-4 leukemia
OVCAR-8 ovarian = tested on: OVCAR-8 ovarian
SF-268 CNS = tested on: SF-268 CNS
SN12C renal = tested on: SN12C renal
T-47D breast = tested on: T-47D breast

Compound | TGI (A498 renal) [µM] | TGI (ACHN renal) [µM] | TGI (CCRF-CEM leukemia) [µM] | TGI (EKVX NSCLC) [µM] | TGI (HCT-15 colon) [µM] | TGI (HL-60(TB) leukemia) [µM] | TGI (HOP-92 NSCLC) [µM] | TGI (HS 578T breast) [µM] | TGI (HT29 colon) [µM] | TGI (IGROV1 ovarian) [µM] | TGI (K-562 leukemia) [µM] | TGI (MOLT-4 leukemia) [µM] | TGI (OVCAR-8 ovarian) [µM] | TGI (SF-268 CNS) [µM] | TGI (SN12C renal) [µM] | TGI (T-47D breast) [µM] | GI50 (ACHN renal) | GI50 (HL-60(TB) leukemia) | GI50 (HT29 colon) | GI50 (MOLT-4 leukemia)
COC(=O)[C@@H]1[C@H](OC(C)=O)CCC2[C@@]3(C[C@@H](c4ccoc4)O[C@@H]3OC)[C@H](C)CC[C@]21C(=O)OC (some centres undefined) | > 25 | > 25 | > 25 | > 25 | > 25 | > 25 | > 25 | > 25 | > 25 | > 25 | > 25 | > 25 | > 25 | > 25 | > 25 | > 25 |  |  |  | 
CCCCn1c(N)c(-c2nc3ccccc3o2)sc1=S | 98.8 | 23.3 | > 100 | 81.8 | 47.5 | > 100 | > 100 | 77.6 | 78 | 44.1 | > 100 | > 100 | 37.7 | 74.4 | 54.3 | 47.9 |  |  |  | 
O=C1C=CC2(C=C1)O[C@H](Cc1ccccc1)[C@@H](Cc1ccccc1)O2 | 16.6 | 0.958 | 0.585 | 1.76 | 0.866 | 6.52 | 2.71 | 2.42 | 2.81 | 0.583 | 5.58 | […] | 0.503 | 2.48 | 3.01 | > 100 |  |  |  | 
CC1(/C=C/CCSc2ccccc2)CC(=O)C2CC1C2(C)C (centres undefined) | > 88.3 | 77.8 | 31 | > 100 | > 96 |  | > 75.4 | > 100 | 29.4 | 53.5 | > 100 | > 40.5 | > 100 | > 100 | 45.6 | > 100 |  |  |  | 
COc1cc2c3c(c1)CCCN3CCC2 | > 10 | > 10 | > 10 | > 10 | > 10 | > 10 | > 10 | > 10 | > 10 | > 10 | > 10 | > 10 | > 10 | > 10 | > 10 | > 10 |  |  |  | 
CCCCCCCC(=O)N[C@H](C(=O)N[C@H](C(=O)N(C)[C@H](C(=O)N1CCC[C@H]1C(=O)N(C)[C@H](C)C(=O)NCc1ccc(OC)cc1OC)C(C)C)C(C)C)C(C)C (Octanoyl-VV[NMeV]P[dNMeA]-X29) | 12.2 | 42.4 | > 72.9 | 97.3 | > 100 | 11.3 | 36.7 | 33.4 | > 85.2 | 32.8 | > 100 | > 90.4 | > 100 | > 100 | > 100 | > 100 |  |  |  | 
COC(=O)[C@@H]1CC(C(C[N+](=O)[O-])c2ccc(O[Si](C)(C)C(C)(C)C)cc2)C(=O)N1C(=O)OC(C)(C)C (some centres undefined) | > 100 | > 100 | > 100 | > 100 |  | > 100 | > 100 | > 100 | > 100 | > 100 | > 100 | > 100 | > 100 | > 100 | > 100 | > 100 | 28.1 µM and > 100 µM | > 100 µM and 46.2 µM | > 100 µM and 47.8 µM | 14.4 µM and 31.4 µM
Cc1cc(C)c(-n2[nH]c(=O)n(C)c2=O)c(C)c1 | > 100 |  | > 100 | > 100 | > 100 | > 100 |  | > 100 | > 100 | > 100 | > 100 | > 100 | > 100 | > 100 | > 100 | > 100 |  |  |  | 
C[C@]12CC[C@@H]3c4cc(OCC(F)(F)F)c(O)cc4CC[C@H]3[C@@H]1CC[C@@H]2O | 20.7 | 47.1 | 15.2 | 30.7 | 15.2 | 10.7 | 21.8 | 23 | 15.3 | 23.8 | 13.5 | 18.9 | 34.3 | 35.2 | 15.5 | 49.5 |  |  |  | 
O=c1[nH]cc(-c2c[nH]c3ccccc23)nc1-c1c[nH]c2ccccc12 | 27.9 | 25 |  | 24.6 | 23.7 |  | 33.3 | 39.9 |  | 14.6 | 9.21 |  | 25.7 | 27.9 | 33.4 | 41.9 |  |  |  | 
CCN(CC)CC1CCCCN1CC(=O)N1c2ccccc2C(=O)Nc2cccnc21 (centres undefined) | > 100 | > 100 | 38.5 | > 100 | > 100 | 35 | > 100 | > 100 | > 100 | > 100 |  | 55.5 | > 100 | > 100 | > 100 | > 100 |  |  |  | 
Cc1cc(S(=O)(=O)Nc2nc3ccccc3nc2-c2cccc([N+](=O)[O-])c2)c(S)cc1Cl | 29.1 | 64.3 | 75.7 | 54.4 | > 100 | 44.4 | 46.5 | 73.4 | 34.2 | 30.4 | > 100 | 73.5 | 80.9 | 56.2 | 78.5 | 38.9 |  |  |  | 
C=C(Br)CNC(=O)Nc1ccc(Cl)c(Cl)c1 | 27.3 | 55 | 45.1 | 78.4 | > 100 | 38.3 | 41.2 | 54.3 | 73.4 | 36.6 | 90.5 | 73.9 |  | 91.9 | 82.7 | > 100 |  |  |  | 
CS(=O)(=O)OCC1CN(S(C)(=O)=O)c2cc(O)ccc21 (centres undefined) | 7.81 | 15.1 | 5.76 | 16 | 12.2 | 6.59 | 7.08 | > 100 | 11.1 | 22.4 | 10.3 | 6.93 | 11.5 | 13.5 | 13.5 | 1.96 |  |  |  | 
O=C(O)C12C3CCC(CC3)C1(C(=O)O)C1CCC2C1 (centres undefined) | > 100 | > 100 | > 100 |  | > 100 | > 100 |  | > 100 | > 100 | > 100 | > 100 | > 100 | > 100 | > 100 | > 100 | > 100 |  |  |  | 
CO/C(=N\N=C\c1ccc(OC)c(OC)c1)c1ccncc1 | > 10 |  | > 10 | > 10 | > 10 | > 10 | > 10 | > 10 |  | > 10 | > 10 | > 10 | > 10 | > 10 | > 10 | > 10 |  |  |  | 
C=CC[C@@H](N)C(=O)N(C)[C@@H](C)[C@@H](O)c1ccccc1 | > 100 | > 100 | > 100 |  | > 100 | > 100 | > 100 | > 100 |  | > 100 |  | > 100 | > 100 | > 100 |  | > 100 |  |  |  | 
COCc1nc(N)nc(N2N=C(C)CC2(C)C)n1 | > 100 | > 100 | > 100 | > 100 | > 100 | > 100 | > 100 | > 100 | > 100 | > 100 | > 100 | > 100 | > 100 | > 100 | > 100 | > 100 |  |  |  | 
CC1=NC(=Cc2cccc(Cl)c2)C(=O)N1n1c(-c2ccccc2)nc2ccccc2c1=O | 83.1 | 52.7 | > 100 | > 100 | > 100 | 61.6 |  | > 100 | 94.8 | > 100 | > 100 | 98.3 | > 100 | > 100 | > 100 | 69 |  |  |  | 
CCOC(=O)C1=NOC2(C=C(Br)C(=O)C(Br)=C2)C1 | 38 | 2.25 |  | 5.45 | 4.91 | 1.1 | 3.56 | 68.1 | 4.68 | 20.6 | 6.42 | 0.304 | 5.3 | 29.1 | 19.6 | 3.99 |  |  |  | 
CCc1nn(CN2CCOCC2)c(=S)n1/N=C/c1ccc(-c2ccc(Cl)cc2)o1 | > 100 | > 100 |  | > 100 | > 100 | > 100 | > 100 | > 100 | > 100 | > 100 | > 100 | > 100 | > 100 | > 100 |  | > 100 |  |  |  | 
CC(C)(C)OC(=O)N/N=C(/N)Cc1ccc(Cl)cc1 | > 100 | > 100 | > 100 | > 100 | > 100 |  |  | > 100 | > 100 | > 100 | > 100 | > 100 | > 100 | > 100 | > 100 | > 100 |  |  |  | 
C=CCC1(OCc2ccccc2)C(=O)C(=O)OC1C1COC(C)(C)O1 (centres undefined) | > 100 | > 100 | > 100 | > 100 | > 100 | > 100 |  | > 100 | > 100 |  | > 100 | > 100 | > 100 | > 100 | > 100 | > 100 |  |  |  | 
Nc1n[n+](CC(=O)c2ccccc2)c2sc(-c3ccccc3)nn12 | > 100 | > 100 | > 100 | > 100 | > 100 |  |  | > 100 | > 100 | > 100 | > 100 | > 100 | > 100 | > 100 | > 100 | > 100 |  |  |  | 
COc1cc2c(cc1OC)C1C=NC(C2)c2cc(OC)c(OC)cc21 (centres undefined) | > 100 | > 100 |  | > 100 | > 100 | > 100 | > 100 | > 100 | > 100 | > 100 | > 100 | > 100 | > 100 | > 100 | > 100 | > 100 |  |  |  | 
CN(C)c1ccc(NN=C2SC(=Nc3ccccc3)C(=Nc3ccccc3)S2)cc1 | > 100 | > 100 | > 100 | > 100 | > 100 | > 100 | > 100 | > 100 | > 100 | > 100 |  | > 100 | > 100 | > 100 | > 100 | > 100 |  |  |  | 
C/C(=N\Nc1ccc([N+](=O)[O-])cc1[N+](=O)[O-])c1sc(-n2nc(-c3ccccc3)cc2-c2ccccc2)nc1C | 92.3 | > 100 | 50.9 | > 100 | > 100 | 44.5 | 77.4 | > 100 | 33.8 | > 100 |  | 46.8 | > 100 | > 100 | > 100 | > 100 |  |  |  | 
O=C1CCCN1C(=O)CS(=O)(=O)c1ccccc1 | > 100 | > 100 | > 100 |  | > 100 |  | > 100 | > 100 | > 100 | > 100 | > 100 | > 100 | > 100 | > 100 | > 100 | > 100 |  |  |  | 
COc1c(Br)cc2c(c1OC)C(Br)CCC(Br)(Br)C2=O (centres undefined) | 12.3 | 5.21 |  | 14.6 | 1.63 | 3.09 | 12.5 | > 71.7 | 3.71 | 5.76 | 8.76 | 5.73 | 1.53 | 4.37 | 1.42 | 4.84 |  |  |  | 
CCOC(=O)C1C(c2ccc3c(c2)OCO3)c2c([nH][nH]c2=O)CC1(C)O (centres undefined) | > 100 | > 100 | > 100 | > 100 | > 100 | > 100 | > 100 | > 100 | > 100 | > 100 |  | > 100 | > 100 | > 100 | > 100 | > 100 |  |  |  | 

From PubChem BioAssay (NCI)
